For orientation: IC50 means the midpoint of a concentration-inhibition curve.

Bounds are passed on as bounds.

Results on 18 compounds are retold here after ChEMBL document CHEMBL6074684, “Structure-activity relationship study of novel evodiamine amino acid conjugates with potent anti-colorectal cancer efficacy” (Eur J Med Chem, 2025).

Type in all cases: functional, cell-based
In one test the test system is HT-29. Put plainly: Antiproliferative activity against human HT-29 cells assessed as inhibition of cell growth incubated for 72 hrs by MTT assay. The conditions noted are these: HT-29, 72 h. In general terms: Tetrazolium dyes change colour on reduction, which living cells bring about.
The subject of the next test is RKO. Put plainly: Antiproliferative activity against human RKO cells assessed as inhibition of cell growth incubated for 72 hrs by MTT assay.
The next test relates to HCT-116. Briefly: Antiproliferative activity against human […] cells assessed as inhibition of cell growth incubated for 72 hrs by MTT assay. The following applies: HCT-116, 72 h.
For a further test, the system named is MGC-803. Put plainly: Antiproliferative activity against human MGC-803 cells assessed as inhibition of cell growth incubated for 72 hrs by MTT assay. The following applies: MGC-803, 72 h.
For another test, the system named is SGC-7901. Briefly: Antiproliferative activity against human SGC-7901 cells assessed as inhibition of cell growth incubated for 72 hrs by MTT assay. The conditions noted are these: SGC-7901, 72 h.
Another test deals with HGC-27. Briefly: Antiproliferative activity against human HGC-27 cells assessed as inhibition of cell growth incubated for 72 hrs by MTT assay. The conditions noted are these: HGC-27, 72 h.
Another test deals with SK-HEP1. Briefly: Antiproliferative activity against human SK-HEP1 cells assessed as inhibition of cell growth incubated for 72 hrs by MTT assay. The conditions noted are these: SK-HEP1, 72 h.
In the next test the test system is MCF7. Put plainly: Antiproliferative activity against human MCF7 cells assessed as inhibition of cell growth incubated for 72 hrs by MTT assay. The following applies: MCF7, 72 h.
The next test relates to Huh-7. Put plainly: Antiproliferative activity against human Huh-7 cells assessed as inhibition of cell growth incubated for 72 hrs by MTT assay. The following applies: Huh-7, 72 h.
For a further test, the system named is LoVo. Put plainly: Antiproliferative activity against human LoVo cells assessed as inhibition of cell growth incubated for 72 hrs by MTT assay.

With `C[C@H](NC(=O)OC(C)(C)C)C(=O)Oc1ccc2[nH]c3c(c2c1)CCN1C(=O)c2cc(F)ccc2N(c2cccc(F)c2)[C@H]31`, the IC50 came out at 280 nM in the test with HT-29; 120 nM with RKO; 370 nM in the test on HCT-116; 310 nM in the test with MGC-803; 630 nM in the test with SGC-7901; 270 nM with HGC-27. For the same compound, the concentration for half-maximal inhibition (IC50) stood at 2650 nM in the test with SK-HEP1, 1980 nM in the test on MCF7, 160 nM with Huh-7 and 230 nM with LoVo.
In the case of `CC(C)(C)OC(=O)N[C@@H](Cc1cnc[nH]1)C(=O)Oc1ccc2[nH]c3c(c2c1)CCN1C(=O)c2cc(F)ccc2N(c2cccc(F)c2)[C@H]31`, the IC50 came out at 360 nM in the test with HT-29; 110 nM in the test on RKO; 360 nM with HCT-116; 200 nM in the test on MGC-803; 230 nM in the test with SGC-7901; 160 nM in the test with HGC-27. Also, the half-inhibitory concentration (IC50) is 770 nM in the test with SK-HEP1, 740 nM in the test with MCF7, 270 nM in the test on Huh-7 and 120 nM in the test on LoVo.
Regarding `CC(C)[C@H](NC(=O)OC(C)(C)C)C(=O)Oc1ccc2[nH]c3c(c2c1)CCN1C(=O)c2cc(F)ccc2N(c2cccc(F)c2)[C@@H]31`, the IC50 stood at 25800 nM with HT-29; 11900 nM in the test with RKO; 29000 nM in the test with HCT-116; 20800 nM with MGC-803; 44300 nM in the test with SGC-7901; 22300 nM in the test with HGC-27. Besides, the half-maximal inhibitory concentration (IC50) was 37800 nM with SK-HEP1, 30400 nM in the test on MCF7, 14200 nM in the test with Huh-7 and 21900 nM with LoVo.
For `CCC(C)[C@H](NC(=O)OC(C)(C)C)C(=O)Oc1ccc2[nH]c3c(c2c1)CCN1C(=O)c2cc(F)ccc2N(c2cccc(F)c2)[C@H]31` (some centres undefined), the IC50 in the test on HT-29 is 440 nM; with RKO, 230 nM; in the test with HCT-116 it was 550 nM; with MGC-803 it was 480 nM; in the test on SGC-7901, 1570 nM; in the test on HGC-27, 520 nM. Moreover, the IC50 in the test on SK-HEP1 was 970 nM; in the test with MCF7, 810 nM; with Huh-7 it was 310 nM; in the test on LoVo, 320 nM.
As for `CC(C)(C)OC(=O)N[C@@H](Cc1c[nH]c2ccccc12)C(=O)Oc1ccc2[nH]c3c(c2c1)CCN1C(=O)c2cc(F)ccc2N(c2cccc(F)c2)[C@H]31`, the IC50 was 540 nM with HT-29; 80 nM in the test on RKO; 280 nM in the test on HCT-116; 690 nM in the test on MGC-803; 1480 nM with SGC-7901; 330 nM with HGC-27. The half-maximal inhibitory concentration (IC50) in the test with SK-HEP1 stood at 900 nM; in the test on MCF7, 1280 nM; in the test with Huh-7 it was 400 nM; in the test with LoVo, 250 nM.
For `CC(C)(C)OC(=O)N[C@@H](Cc1ccccc1)C(=O)Oc1ccc2[nH]c3c(c2c1)CCN1C(=O)c2cc(F)ccc2N(c2cccc(F)c2)[C@@H]31`, the IC50 with HT-29 amounted to 30500 nM; with RKO, 19500 nM; in the test on HCT-116 it was 26200 nM; in the test on MGC-803 it was 15900 nM; in the test with SGC-7901 it was 47700 nM; in the test on HGC-27 it was 22700 nM. In addition, the IC50 in the test with SK-HEP1 was determined as 37800 nM; in the test with MCF7, 47300 nM; in the test on Huh-7, 11800 nM; in the test with LoVo, 15700 nM.
Take `CC(C)(C)OC(=O)N[C@@H](COCc1ccccc1)C(=O)Oc1ccc2[nH]c3c(c2c1)CCN1C(=O)c2cc(F)ccc2N(c2cccc(F)c2)[C@H]31`: the half-inhibitory concentration (IC50) with HT-29 amounted to 380 nM; in the test with RKO, 110 nM; in the test with HCT-116, 400 nM; with MGC-803, 410 nM; in the test on SGC-7901, 540 nM; in the test on HGC-27, 320 nM. Moreover, the concentration for half-maximal inhibition (IC50) in the test with SK-HEP1 worked out at 650 nM; in the test on MCF7, 830 nM; in the test with Huh-7 it was 300 nM; in the test on LoVo, 190 nM.
As for `CC(C)(C)OC(=O)N[C@@H](COCc1ccccc1)C(=O)Oc1ccc2[nH]c3c(c2c1)CCN1C(=O)c2cc(F)ccc2N(c2cccc(F)c2)[C@@H]31`, the IC50 in the test with HT-29 was 29400 nM; in the test on RKO, 16800 nM; in the test on HCT-116 it was 24600 nM; in the test on MGC-803 it was 16200 nM; with SGC-7901 it was 57100 nM; with HGC-27 it was 20600 nM. Also, the IC50 turned out to be 35900 nM in the test with SK-HEP1, 22100 nM with MCF7, 10100 nM in the test on Huh-7 and 15300 nM in the test with LoVo.
As to `CC(C)(C)OC(=O)NCC(=O)Oc1ccc2[nH]c3c(c2c1)CCN1C(=O)c2cc(F)ccc2N(c2cccc(F)c2)[C@H]31`, the IC50 stood at 260 nM in the test on HT-29; 95 nM in the test with RKO; 200 nM in the test on HCT-116; 210 nM with MGC-803; 480 nM with SGC-7901; 200 nM with HGC-27. Besides, the concentration for half-maximal inhibition (IC50) with SK-HEP1 amounted to 1390 nM; in the test on MCF7, 1190 nM; in the test with Huh-7, 160 nM; with LoVo, 170 nM.
In the case of `CCC(C)[C@H](NC(=O)OC(C)(C)C)C(=O)Oc1ccc2[nH]c3c(c2c1)CCN1C(=O)c2cc(F)ccc2N(c2cccc(F)c2)[C@@H]31` (some centres undefined), the IC50 in the test with HT-29 is 52500 nM; in the test with RKO, more than 100000 nM; with HCT-116 it was more than 100000 nM; in the test on MGC-803, more than 100000 nM; in the test on SGC-7901 it was more than 100000 nM; in the test with HGC-27, 55700 nM. Further, the half-maximal inhibitory concentration (IC50) is 62400 nM with SK-HEP1, 69800 nM in the test with MCF7, 46000 nM with Huh-7 and 55800 nM in the test on LoVo.
On to `CC(C)[C@H](NC(=O)OC(C)(C)C)C(=O)Oc1ccc2[nH]c3c(c2c1)CCN1C(=O)c2cc(F)ccc2N(c2cccc(F)c2)[C@H]31`, for which the IC50 was 340 nM in the test on HT-29; 200 nM with RKO; 430 nM with HCT-116; 380 nM in the test with MGC-803; 810 nM with SGC-7901; 420 nM in the test on HGC-27. The concentration for half-maximal inhibition (IC50) in the test on SK-HEP1 amounted to 1150 nM; in the test with MCF7, 980 nM; in the test on Huh-7, 280 nM; in the test with LoVo it was 290 nM.
In the case of `CC(C)(C)OC(=O)NCC(=O)Oc1ccc2[nH]c3c(c2c1)CCN1C(=O)c2cc(F)ccc2N(c2cccc(F)c2)[C@@H]31`, the IC50 in the test on HT-29 is 24100 nM; with RKO it was 38600 nM; with HCT-116, 33100 nM; in the test on MGC-803, 29600 nM; in the test on SGC-7901, 42600 nM; in the test with HGC-27, 32100 nM. In addition, the 50% inhibitory concentration (IC50) amounted to 30500 nM in the test with SK-HEP1, 38900 nM in the test on MCF7, 17200 nM with Huh-7 and 26400 nM with LoVo.
`CSCC[C@H](NC(=O)OC(C)(C)C)C(=O)Oc1ccc2[nH]c3c(c2c1)CCN1C(=O)c2cc(F)ccc2N(c2cccc(F)c2)[C@@H]31`: the half-maximal inhibitory concentration (IC50) with HT-29 was 28700 nM; in the test with RKO, 20500 nM; in the test on HCT-116, 20200 nM; with MGC-803, 17800 nM; with SGC-7901, 46100 nM; in the test on HGC-27, 28600 nM. The IC50 in the test with SK-HEP1 is 38500 nM; in the test with MCF7 it was 50500 nM; with Huh-7, 13800 nM; in the test with LoVo, 14900 nM.
As to `CC(C)(C)OC(=O)N[C@@H](Cc1ccccc1)C(=O)Oc1ccc2[nH]c3c(c2c1)CCN1C(=O)c2cc(F)ccc2N(c2cccc(F)c2)[C@H]31`, the concentration for half-maximal inhibition (IC50) in the test with HT-29 is 430 nM; with RKO, 90 nM; in the test with HCT-116, 360 nM; in the test with MGC-803, 220 nM; in the test on SGC-7901, 490 nM; in the test with HGC-27 it was 280 nM. For the same compound, the IC50 in the test with SK-HEP1 was 770 nM; in the test with MCF7, 950 nM; in the test on Huh-7, 200 nM; in the test on LoVo, 230 nM.
Regarding `CSCC[C@H](NC(=O)OC(C)(C)C)C(=O)Oc1ccc2[nH]c3c(c2c1)CCN1C(=O)c2cc(F)ccc2N(c2cccc(F)c2)[C@H]31`, the concentration for half-maximal inhibition (IC50) with HT-29 is 330 nM; in the test with RKO, 140 nM; in the test with HCT-116 it was 360 nM; in the test on MGC-803 it was 330 nM; in the test on SGC-7901 it was 510 nM; in the test with HGC-27, 210 nM. For the same compound, the IC50 with SK-HEP1 is 680 nM; with MCF7 it was 780 nM; with Huh-7, 210 nM; in the test on LoVo, 200 nM.
Regarding `CC(C)(C)OC(=O)N[C@@H](Cc1cnc[nH]1)C(=O)Oc1ccc2[nH]c3c(c2c1)CCN1C(=O)c2cc(F)ccc2N(c2cccc(F)c2)[C@@H]31`, the IC50 in the test on HT-29 was 28300 nM; in the test with RKO it was 16300 nM; in the test on HCT-116 it was 21000 nM; in the test with MGC-803 it was 15500 nM; in the test with SGC-7901 it was 66500 nM; in the test with HGC-27, 23700 nM. The half-maximal inhibitory concentration (IC50) stood at 33500 nM with SK-HEP1, 47000 nM in the test on MCF7, 12800 nM in the test with Huh-7 and 12400 nM in the test with LoVo.
On to `CC(C)C[C@H](NC(=O)OC(C)(C)C)C(=O)Oc1ccc2[nH]c3c(c2c1)CCN1C(=O)c2cc(F)ccc2N(c2cccc(F)c2)[C@H]31`, for which the half-inhibitory concentration (IC50) worked out at 190 nM in the test with HT-29; 150 nM with RKO; 370 nM with HCT-116; 320 nM in the test on MGC-803; 690 nM with SGC-7901; 300 nM with HGC-27. In addition, the IC50 came to 650 nM in the test on SK-HEP1, 1100 nM with MCF7, 140 nM in the test with Huh-7 and 220 nM in the test on LoVo.
In the case of `O=C1c2cc(F)ccc2N(c2cccc(F)c2)[C@H]2c3[nH]c4ccc(O)cc4c3CCN12`, the half-maximal inhibitory concentration (IC50) worked out at 180 nM in the test on HT-29, 100 nM in the test on RKO, 350 nM in the test on HCT-116 and 130 nM with LoVo.
